Test results from US4959362A, “Pharmaceutical compositions containing certain ascorbic acid derivatives useful in the prophylaxis and treatment of disorders of the circulatory system” (Takeda Chemical Industries, Inc., priority 1983, dated 1990).

Key:
[1] = system: lipid peroxide formation in rat brain tissue homogenate; test: Inhibition of lipid peroxide formation in rat brain tissue homogenate (TBA method); format: biochemical, rat (male SD); details: 10^-5 M; for Inhibitory Effect (%) on lipid peroxide formation: n = 3, mean ± standard error, 37° C., 1 hour
Experimental: Activity to inhibit lipid peroxide formation in rat brain tissue homogenate:
Male SD rats (12-weeks old) were subjected to exsanguination under anesthesia with pentobarbital, then the brain was excised. The brain tissue was homogenized in a phosphate buffer solution (pH 7.4) to prepare a 5% homogenate. After incubation of the homogenate at 37° C. for 1 hour, the amount of lipid peroxides formed therein was determined by thiobarbituric acid (TBA) method in accordance with the report of Ohkawa et al. on Analytical Biochemistry 95 351, 1979.
The test drug was added to the 5% homogenate before incubation so as to make the final concentration be 10^-5 M. The activity to inhibit the formation of lipid peroxides was compared with that of the reference group to which was added the solvent (DMSO), and shown by % inhibition.

[2] = system: ventricular arrhythmias after coronary artery occlusion-reperfusion in rat hearts; test: Inhibition of ventricular arrhythmias during coronary artery occlusion-reperfusion in rat hearts; format: in vivo, rat (male SD); details: for Extrasystole / Mortality (animals) / Mortality (percentage) / Ventricular fibrillation Incidence (animals) / Ventricular fibrillation Incidence (percentage) / Ventricular tachycardia Incidence (animals) / Ventricular tachycardia Incidence (percentage) / Ventricular fibrillation Duration / Ventricular tachycardia Duration / occurrence of ventricular arrhythmias: oral; for Ventricular fibrillation Duration / Ventricular tachycardia Duration: average ±SEM; for occurrence of ventricular arrhythmias: 20 and 50 mg/kg of compound (1-12), 50 mg/kg of vitamin C or E
Experimental: Action to inhibit ventricular arrhythmias occurred during coronary artery occlusion-reperfusion in rat hearts
Male SD rats (9~13 - weeks old, 250~370 g) were used. The animals were subjected to thoractonomy under artificial respiration while anesthesia was maintained by administering pentobarbital. […] By recording standard limb lead II electrocardiograms, occurrence of ventricular arrhythmias was examined.
The animals were administered, under non-anesthesia, with test drugs as a gum arabic suspension at the dosage of 30 mg/kg at the time of about 90 minutes and of 20 mg/kg at the time of about 45 minutes (total: 50 mg/kg), or at the dosage of 10 mg/kg each (total: 20 mg/kg) at the time of about 90 minutes and about 45 minutes prior to closure of the coronary artery. The results are shown in Table 4 in terms of the total amount of the dosage.
Incidences of ventricular fibrillation and ventricular tachycardia are shown by the percentage of the number of animals presenting the symptoms relative to the number of animals subjected to the test, and the duration of the symptoms was shown in average ±SEM by seconds. Extrasystole is shown by the number of systole/min, and the mortality is shown by the percentage of the number of animals killed relative to the number of animals subjected to the test.

[3] = system: ischemic convulsive seizure (bilateral common carotid artery ligation); test: Inhibition of ischemic seizure due to ligation of bilateral common carotid arteries in SHR rats; format: in vivo, rat (male SHR)
Experimental: Inhibition of ischemic seizure due to ligation of bilateral common carotid arteries in SHR rats
Male SHR rats (22-weeks old, about 360 g) were used. Under light anesthesia with ether, the animals were subjected to midline incision at the neck and the bilateral common carotid arteries were singled, then ligated to cause cerebral ischemia. […] The animals were orally administered with test drugs as a gum arabic suspension 60 minutes before the ligation of the bilateral common carotid arteries.

[4] = system: renal disorders due to Fe^3+ -nitrilotriacetate (NTA); test: Effects on renal disorders in rats due to Fe^3+ nitrilotriacetate (NTA); format: in vivo, rat (male SLC-Wistar); details: 30 mg/kg orally; for Body Weight / Kidney Weight / Occult Blood Test (positive animals/animals) / Protein in urine / Volume of urine: n = 6, last day of the experiment
Experimental: Effects to alleviate renal disorders in rats due to Fe^3+ nitrilotriacetate:
Male SLC-Wistar rats (4-weeks old, 64~85 g) were used. The animals were housed individually in metabolism cages and allowed free access to feed and water. Body weight, volume of urine and protein in urine (BIO-RAD method) were determined every day, and occult blood reaction was also examined (Labstick method). On the last day of the experiment, the kidney was excised and weighed.
The animals were orally administered once daily with test drugs or vehicles thereof (suspension in gum arabic), and, 40~60 minutes later, were injected intraperitoneally with nitrilotriacetate (NTA) or Fe^3+ -NTA. Fe^3+ -NTA was used in a form of mixture (1:4, molar ratio), and the dosages were 5 mg/kg in terms of Fe^3+ for 3 days and successively 10 mg/kg for 5 days.
Test drugs were compound (1-12), vitamin C and vitamin E, and the dosages were all 30 mg/kg.

[5] = Oxidation inhibitory activity: reduction of a stable free radical (DPPH); format: biochemical; details: for DPPH reducing activity compared with the test drug: FIG. 1
Experimental: Oxidation inhibitory activity determined with the use of a stable radical: In accordance with the method of M. S. Brois [Nature, 181, 1199, 1958], the activity to reduce a stable free radical, α,α-diphenyl-β-picryl hydrazyl (DPPH), was determined, which was used as an index of the oxidation inhibitory activity. […] Then, 20 minutes later, the absorbance at a wavelength of 517 nm was measured with the use of a spectrophotometer.

[6] = system: mice; test: Acute toxicity in mice; format: in vivo; details: 300 and 1000 mg/kg orally
Experimental: Male Crj-ICR mice (4-weeks old, 21~26 g) were used. The animals, divided into groups, each consisting of six mice, were administered orally with compound (1-12) at the dosage of 300 or 1000 mg/kg. Then, each group was housed in a cage, and observed for 24 hours. The test drugs were suspended in gum arabic, and administered at the volume of 0.1 ml/10 g.

[7] = 100 mg/kg p.o., within 180 minutes

## CCCCCCCCOC1=C(O)[C@@H]([C@@H](O)CO)OC1=O [Compound (1-2)]
[1]
  Inhibitory Effect (%) on lipid peroxide formation: -6.6 ± 3.0%

## CCCCCCCCCCOC1=C(O)[C@@H]([C@@H](O)CO)OC1=O [Compound (1-4)]
[1]
  Inhibitory Effect (%) on lipid peroxide formation: 40.0 ± 1.1%

## CCCCCCCCCCCCOC1=C(O)[C@@H]([C@@H](O)CO)OC1=O [Compound (1-6), 2-O-Dodecyl-L-ascorbic acid]
[1]
  Inhibitory Effect (%) on lipid peroxide formation: 55.7 ± 26.5%

## CCCCCCCCCCCCCCOC1=C(O)[C@@H]([C@@H](O)CO)OC1=O [Compound (1-8)]
[1]
  Inhibitory Effect (%) on lipid peroxide formation: 93.1 ± 5.3%

## CCCCCCCCCCCCCCCOC1=C(O)[C@@H]([C@@H](O)CO)OC1=O [Compound (1-9), 2-O-pentadecyl-L-ascorbic acid]
[1]
  Inhibitory Effect (%) on lipid peroxide formation: 100.0 ± 0%

## CCCCCCCCCCCCCCCCOC1=C(O)[C@@H]([C@@H](O)CO)OC1=O [Compound (1-10), 2-O-hexadecyl-L-ascorbic acid]
[1]
  Inhibitory Effect (%) on lipid peroxide formation: 78.5 ± 11.7%

## CCCCCCCCCCCCCCCCCCOC1=C(O)[C@@H]([C@@H](O)CO)OC1=O [Compound (1-12), 2-O-octadecylascorbic acid]
[2]; 20 mg/kg total
  Extrasystole: 3.3 ± 0.8 systole/min
  Mortality (animals): 1/17
  Mortality (percentage): 6 percentage
  Ventricular fibrillation Incidence (animals): 9/17
  Ventricular fibrillation Incidence (percentage): 53 percentage
  Ventricular tachycardia Incidence (animals): 11/17
  Ventricular tachycardia Incidence (percentage): 65 percentage
  Ventricular fibrillation Duration: 31.0 ± 28.2 s
  Ventricular tachycardia Duration: 10.2 ± 3.2 s
[2]; 50 mg/kg total
  Extrasystole: 1.1 ± 0.3 systole/min
  Mortality (animals): 0/9
  Mortality (percentage): 0 percentage
  Ventricular fibrillation Incidence (animals): 2/9
  Ventricular fibrillation Incidence (percentage): 22 percentage
  Ventricular tachycardia Incidence (animals): 2/9
  Ventricular tachycardia Incidence (percentage): 22 percentage
  Ventricular fibrillation Duration: 1.2 ± 0.8 s
  Ventricular tachycardia Duration: 3.2 ± 2.6 s
[2]; 20 and 50 mg/kg
  frequency of occasional PVCs: less significantly
  mortality due to VF: low
  period of time during which the symptom lasted: shortened
[2]
  occurrence of ventricular arrhythmias: suppressed significantly and depending on the dosages
[3]; 100 mg/kg orally, versus vehicle
  delay of appearance of the convulsion: about 40 minutes
[3]; 100 mg/kg p.o., n = 5
  Ischemic convulsive seizure Time: 199 min
[3]; [7]
  Ischemic convulsive seizure Incidence (%): 20%
  Ischemic convulsive seizure Incidence (animals): 1/5
[4]
  Effect on renal disorders: renal disorders were alleviated
  occult blood detection: only in half of the test animals, occult blood was detected
  urine volume and urinary protein compared with vehicle: significatly less
  weight of kidney compared with vehicle: significantly less
  Body Weight: 95.5 ± 3.0 g
  Kidney Weight: 56.5 ± 2.0 mg
  Occult Blood Test (positive animals/animals): 3/6
  Protein in urine: 8.1 ± 2.1 mg/day
  Volume of urine: 7.4 ± 1.3 mL/day
[1]
  Activity on lipid peroxide formation: higher activity
  Inhibitory Effect (%) on lipid peroxide formation: 88.6 ± 6.8%
[5]; 20 minutes, 0.1 mM DPPH ethanol solution, 517 nm
  concentration at which DPPH is reduced in a manner dependent upon the amount used: not less than 10^-5 M
[6]
  recovery from sedation and ptosis: ≤ 3 h
  state observed: the state of sedation and ptosis were observed
[6]; 24-hour-observation
  lethality: no test animals of either group were killed

## CCCCCCCCCCCCCCCCCCCCOC1=C(O)[C@@H]([C@@H](O)CO)OC1=O [Compound (1-13)]
[1]
  Inhibitory Effect (%) on lipid peroxide formation: 95.4 ± 4.6%

## CCCCCCCCCCCCCCCCCCCCCCOC1=C(O)[C@@H]([C@@H](O)CO)OC1=O [Compound (1-14)]
[1]
  Inhibitory Effect (%) on lipid peroxide formation: 38.1 ± 16.6%

## O=C1O[C@H]([C@@H](O)CO)C(O)=C1O [Vitamin C, ascorbic acid]
[2]; 50 mg/kg total
  Extrasystole: 5.1 ± 1.0 systole/min
  Mortality (animals): 0/6
  Mortality (percentage): 0 percentage
  Ventricular fibrillation Incidence (animals): 6/6
  Ventricular fibrillation Incidence (percentage): 100 percentage
  Ventricular tachycardia Incidence (animals): 6/6
  Ventricular tachycardia Incidence (percentage): 100 percentage
  Ventricular fibrillation Duration: 9.7 ± 2.5 s
  Ventricular tachycardia Duration: 19.0 ± 3.0 s
[2]
  occurrence of ventricular arrhythmias: no significant effects
[4]
  Effect on renal disorders: did not show significant effect for alleviating renal disorders
  Body Weight: 89.2 ± 4.1 g
  Kidney Weight: 64.5 ± 1.7 mg
  Occult Blood Test (positive animals/animals): 5/6
  Protein in urine: 10.7 ± 2.4 mg/day
  Volume of urine: 10.3 ± 1.7 mL/day
[1]
  Activity on lipid peroxide formation: promoted the formation of lipid peroxides remarkably
  Inhibitory Effect (%) on lipid peroxide formation: -71.6 ± 36.8%
[5]
  DPPH reducing activity compared with the test drug: activity equal to that of the test drug

## CCCCCCCCCCCCCCCCCCOC1=C(O)C(=O)O[C@@H]1[C@@H](O)CO [reference compound]
[1]
  Inhibitory Effect (%) on lipid peroxide formation: 45.4 ± 8.7%

## Vitamin E [reference compound]
[2]; 50 mg/kg total
  Extrasystole: 7.0 ± 4.1 systole/min
  Mortality (animals): 1/10
  Mortality (percentage): 10 percentage
  Ventricular fibrillation Incidence (animals): 6/10
  Ventricular fibrillation Incidence (percentage): 60 percentage
  Ventricular tachycardia Incidence (animals): 7/10
  Ventricular tachycardia Incidence (percentage): 70 percentage
  Ventricular fibrillation Duration: 43.4 ± 36.0 s
  Ventricular tachycardia Duration: 22.3 ± 9.7 s
[2]
  occurrence of ventricular arrhythmias: no significant effects
[4]
  Effect on renal disorders: substantially the same effects
  occult blood detection: in more than half of the test animals, occult blood test was positive
  Body Weight: 99.3 ± 2.3 g
  Kidney Weight: 54.3 ± 2.7 mg
  Occult Blood Test (positive animals/animals): 4/6
  Protein in urine: 6.3 ± 1.4 mg/day
  Volume of urine: 9.0 ± 1.0 mL/day
[1]
  Inhibitory Effect (%) on lipid peroxide formation: 44.9 ± 11.7%
[5]
  DPPH reducing activity compared with the test drug: activity equal to that of the test drug
